We go through 23 compounds from patent US20220220095A1, “N-((HETEROARYL)METHYL)-1-TOSYL-1H-PYRAZOLE-3-CARBOXAMIDE DERIVATIVES AS Kv3 POTASSIUM CHANNEL ACTIVATORS FOR TREATING NEUROLOGICAL AND [sequence] DISORDERS” (H. Lundbeck A/S, priority 2019, published 2022).

The experiment addresses T1, hKv3.1b (Homo sapiens, UniProt P48547).
T1 construct: expressed in transfected cells
T1 sequence (P48547 1-585 isoform P48547-2): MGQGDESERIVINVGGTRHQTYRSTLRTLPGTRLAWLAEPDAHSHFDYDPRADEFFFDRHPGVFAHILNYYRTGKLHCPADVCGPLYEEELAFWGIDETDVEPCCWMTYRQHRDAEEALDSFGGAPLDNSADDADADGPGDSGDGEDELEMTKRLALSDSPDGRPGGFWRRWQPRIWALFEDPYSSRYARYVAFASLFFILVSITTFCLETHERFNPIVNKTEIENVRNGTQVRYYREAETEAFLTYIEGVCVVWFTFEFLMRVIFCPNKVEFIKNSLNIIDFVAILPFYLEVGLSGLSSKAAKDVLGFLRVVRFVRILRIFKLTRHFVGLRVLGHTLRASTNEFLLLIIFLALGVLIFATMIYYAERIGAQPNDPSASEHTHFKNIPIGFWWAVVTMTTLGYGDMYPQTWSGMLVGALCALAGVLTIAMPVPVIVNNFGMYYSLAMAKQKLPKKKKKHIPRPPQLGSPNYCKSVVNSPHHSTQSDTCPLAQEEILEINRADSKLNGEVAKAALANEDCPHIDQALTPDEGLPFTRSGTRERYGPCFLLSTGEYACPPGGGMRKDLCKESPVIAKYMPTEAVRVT
In words: Automated whole-cell patch-clamp (QPatch-16x) on HEK-293 cells stably expressing hKv3.1b: shift of voltage threshold for channel activation. It is filed as cell-based. To be noted: HEK-293 hKv3.1b; for ECdelta5mV: concentration needed to shift the threshold 5 mV, read out from fitted concentration response curve; for Max Delta threshold: maximum absolute shift of activation threshold to more hyperpolarized potentials at the tested concentrations (0.37, 1.11, 3.33, 10, 30 μM). The procedure: HEK-293 cells stably expressing hKv3.1b was used for the experiments. Cells were cultured in DMEM medium supplemented with 10% Fetal Bovine Serum, 100 ug/mL Geneticidin and 100 u/mL Penicillin/Streptomycin (all from Gibco). Cells were grown to 80-90% confluency at 37° C. and 5% CO2. On the day of the experiment the cells were detached from the tissue culture flasks by Detachin and resuspended in serum free medium containing 25 mM HEPES and transferred to the cell hotel of the QPatch. The cells were used for experiments 0-5 hours after detachment.
Patch-clamp recordings were performed using the automated recording system QPatch-16x (Sophion Bioscience, Denmark). Cells were centrifuged, SFM removed and the cells were resuspended in extracellular buffer containing (in mM): 145 NaCl, 4 KCl, 1 MgCl2, 2 CaCl2, 10 HEPES and 10 glucose (added fresh on the day of experiment); pH 7.4 adjusted with NaOH, 305 mOsm adjusted with sucrose.
Single cell whole-cell recordings were carried out using an intracellular solution containing (in mM): 120 KCl, 32.25/10 KOH/EGTA, 5.374 CaCl2, 1.75 MgCl2, 10 HEPES, 4 Na2ATP (added fresh on the day), pH 7.2 adjusted with KOH, […] adjusted with sucrose. Cell membrane potentials were held at −80 mV and currents were evoked by voltage steps (200 ms duration) from −70 mV to +10 mV (in 10 mV increments).
Leak subtraction protocol was applied at −33% of the sweep amplitude, and serial resistance values were constantly monitored.
Any cell where serial resistance exceeded 25 MOhm, membrane resistance less than 200 MOhm or current size at −10 mV less than 200 pA was eliminated from the subsequent analysis.
Data analysis was performed using Sophion's QPatch assay software in combination with Microsoft Excel™ (Redmond, Wash., USA).
Current voltage relationships were plotted from the peak current at the individual voltage steps normalized to the vehicle addition at 10 mV. The voltage threshold for channel activation was defined as 5% activation of the peak current at 10 mV in presence of vehicle. The activity of the compounds was described as the ability to shift this current voltage relationship to more hyperpolarized potentials and is given as the maximum absolute shift possible at the tested concentrations (0.37, 1.11, 3.33, 10, 30 μM). Concentration response curves were plotted from the threshold shift at the individual concentrations and were fitted excel fit model 205 sigmodal dose-response model (fit=A+((B−A)/1+((C/x)^D)))), where A is the minimum value, B the maximum value, C the EC50 value and D the slope of the curve. The concentration needed to shift the threshold 5 mV was readout from this curve (ECdelta 5 mV).

`Cc1ccc(S(=O)(=O)n2ccc(C(=O)NCc3cnsc3)n2)cc1` [Compound 33, 1-(4-methylbenzene-1-sulfonyl)-N-[(1,2-thiazol-4-yl)methyl]-1H-pyrazole-3-carboxamide]: the ECdelta5mV came out at 2800 nM and the “Max Delta threshold” value amounted to 12 mV.

Consider `COc1ccc(S(=O)(=O)n2ccc(C(=O)NCc3cnccn3)n2)cc1C` [Compound 4, 1-(4-methoxy-3-methylbenzene-1-sulfonyl)-N-[(pyrazin-2-yl)methyl]-1H-pyrazole-3-carboxamide], for which the ECdelta5mV amounted to 2100 nM and the “Max Delta threshold” value was found to be 21 mV.

As to `Cc1ccc(S(=O)(=O)n2ccc(C(=O)NCc3nccs3)n2)cc1` [Compound 59, 1-(4-methylbenzene-1-sulfonyl)-N-[(1,3-thiazol-2-yl)methyl]-1H-pyrazole-3-carboxamide], the ECdelta5mV was 3000 nM and the “Max Delta threshold” value stood at 14 mV.

For `Cc1cnc(CNC(=O)c2ccn(S(=O)(=O)c3ccc(OC(F)(F)F)cc3)n2)cn1` [Compound 70, N-[(5-methylpyrazin-2-yl)methyl]-1-[4-(trifluoromethoxy)phenyl]sulfonyl-pyrazole-3-carboxamide], the ECdelta5mV turned out to be 4000 nM and the “Max Delta threshold” value was found to be 19 mV.

For `COc1ccc(S(=O)(=O)n2ccc(C(=O)NCc3cnoc3)n2)cc1` [Compound 9, 1-(4-methoxybenzene-1-sulfonyl)-N-[(1,2-oxazol-4-yl)methyl]-1H-pyrazole-3-carboxamide], the ECdelta5mV came to 3900 nM and the “Max Delta threshold” value is recorded as 13 mV.

Turning to `COc1ccc(S(=O)(=O)n2ccc(C(=O)NCc3ncc(C)cn3)n2)cc1` [Compound 37, 1-(4-methoxybenzene-1-sulfonyl)-N-[(5-methylpyrimidin-2-yl)methyl]-1H-pyrazole-3-carboxamide], the ECdelta5mV was found to be 2400 nM and the “Max Delta threshold” value came out at 27 mV.

Consider `Cc1ccc(S(=O)(=O)n2ccc(C(=O)NCc3nncs3)n2)cc1` [Compound 47, 1-(4-methylbenzene-1-sulfonyl)-N-[(1,3,4-thiadiazol-2-yl)methyl]-1H-pyrazole-3-carboxamide], for which the ECdelta5mV turned out to be 3300 nM and the “Max Delta threshold” value is 16 mV.

With `Cc1ccc(S(=O)(=O)n2ccc(C(=O)NCc3ncc(C)cn3)n2)cc1` [Compound 15, 1-(4-methylbenzene-1-sulfonyl)-N-[(5-methylpyrimidin-2-yl)methyl]-1H-pyrazole-3-carboxamide], the ECdelta5mV is reported as 2600 nM and the “Max Delta threshold” value was 23 mV.

In the case of `Cc1cnc(CNC(=O)c2ccn(S(=O)(=O)c3ccccc3C)n2)nc1` [Compound 25, 1-(2-methylbenzene-1-sulfonyl)-N-[(5-methylpyrimidin-2-yl)methyl]-1H-pyrazole-3-carboxamide], the ECdelta5mV came out at 6500 nM and the “Max Delta threshold” value is 13 mV.

Take `Cc1ccc(S(=O)(=O)n2ccc(C(=O)NCc3ncon3)n2)cc1` [Compound 57, 1-(4-methylbenzene-1-sulfonyl)-N-[(1,2,4-oxadiazol-3-yl)methyl]-1H-pyrazole-3-carboxamide]: the ECdelta5mV came to 4900 nM and the “Max Delta threshold” value stood at 13 mV.

For the compound `Cc1cnc(CNC(=O)c2ccn(S(=O)(=O)c3ccccc3Cl)n2)cn1` [Compound 84, 1-(2-chlorophenyl)sulfonyl-N-[(5-methylpyrazin-2-yl)methyl]pyrazole-3-carboxamide], the ECdelta5mV is reported as 7700 nM and the “Max Delta threshold” value is 12 mV.

`Cc1ccc(S(=O)(=O)n2ccc(C(=O)NCc3cnc(C)nc3)n2)cc1` [Compound 50, 1-(4-methylbenzene-1-sulfonyl)-N-[(2-methylpyrimidin-5-yl)methyl]-1H-pyrazole-3-carboxamide]: the ECdelta5mV stood at 1700 nM and the “Max Delta threshold” value is listed as 24 mV.

For the compound `COc1ccc(S(=O)(=O)n2ccc(C(=O)NCc3ncccc3F)n2)cc1` [Compound 86, N-[(3-fluoro-2-pyridyl)methyl]-1-(4-methoxyphenyl)sulfonyl-pyrazole-3-carboxamide], the ECdelta5mV amounted to 2400 nM and the “Max Delta threshold” value turned out to be 19 mV.

Turning to `Cc1ccc(S(=O)(=O)n2ccc(C(=O)NCc3cocn3)n2)cc1` [Compound 49, 1-(4-methylbenzene-1-sulfonyl)-N-[(1,3-oxazol-4-yl)methyl]-1H-pyrazole-3-carboxamide], the ECdelta5mV amounted to 2000 nM and the “Max Delta threshold” value amounted to 19 mV.

With `Cc1cnc(CNC(=O)c2ccn(S(=O)(=O)c3ccc(Cl)cc3F)n2)cn1` [Compound 73, 1-(4-chloro-2-fluoro-phenyl)sulfonyl-N-[(5-methylpyrazin-2-yl)methyl]pyrazole-3-carboxamide], the ECdelta5mV is recorded as 2400 nM and the “Max Delta threshold” value is reported as 33 mV.

Take `Cc1cnc(CNC(=O)c2ccn(S(=O)(=O)c3ccc(Cl)cc3C)n2)cn1` [Compound 67, 1-(4-chloro-2-methyl-phenyl)sulfonyl-N-[(5-methylpyrazin-2-yl)methyl]pyrazole-3-carboxamide]: the ECdelta5mV was found to be 1100 nM and the “Max Delta threshold” value worked out at 34 mV.

With `COc1ccc(S(=O)(=O)n2ccc(C(=O)NCc3cnc(C)cn3)n2)c(Cl)c1` [Compound 82, 1-(2-chloro-4-methoxy-phenyl)sulfonyl-N-[(5-methylpyrazin-2-yl)methyl]pyrazole-3-carboxamide], the ECdelta5mV is given as 1600 nM and the “Max Delta threshold” value is recorded as 29 mV.

`Cc1ccc(S(=O)(=O)n2ccc(C(=O)NCc3ncco3)n2)cc1` [Compound 45, 1-(4-methylbenzene-1-sulfonyl)-N-[(1,3-oxazol-2-yl)methyl]-1H-pyrazole-3-carboxamide]: the ECdelta5mV was found to be 2800 nM and the “Max Delta threshold” value is listed as 15 mV.

For the compound `COc1ccc(S(=O)(=O)n2ccc(C(=O)NCc3cnccn3)n2)cc1` [Compound 43, 1-(4-methoxybenzene-1-sulfonyl)-N-[(pyrazin-2-yl)methyl]-1H-pyrazole-3-carboxamide], the ECdelta5mV was found to be 1600 nM and the “Max Delta threshold” value is on record as 25 mV.

Regarding `Cc1cnc(CNC(=O)c2ccn(S(=O)(=O)c3ccc(Cl)cc3)n2)cn1` [Compound 76, 1-(4-chlorophenyl)sulfonyl-N-[(5-methylpyrazin-2-yl)methyl]pyrazole-3-carboxamide], the ECdelta5mV came to 1500 nM and the “Max Delta threshold” value stood at 25 mV.

With `Cc1cnc(CNC(=O)c2ccn(S(=O)(=O)c3ccc(F)cc3C)n2)cn1` [Compound 66, 1-(4-fluoro-2-methyl-phenyl)sulfonyl-N-[(5-methylpyrazin-2-yl)methyl]pyrazole-3-carboxamide], the ECdelta5mV turned out to be 2400 nM and the “Max Delta threshold” value was determined as 31 mV.

On to `Cc1cnc(CNC(=O)c2ccn(S(=O)(=O)c3ccccc3C)n2)o1` [Compound 17, 1-(2-methylbenzene-1-sulfonyl)-N-[(5-methyl-1,3-oxazol-2-yl)methyl]-1H-pyrazole-3-carboxamide], for which the ECdelta5mV is recorded as 3900 nM and the “Max Delta threshold” value turned out to be 15 mV.

Turning to `COc1ccc(S(=O)(=O)n2ccc(C(=O)NCc3cccnc3)n2)cc1` [Compound 64, 1-(4-methoxyphenyl)sulfonyl-N-(3-pyridylmethyl)pyrazole-3-carboxamide], the ECdelta5mV is 1600 nM and the “Max Delta threshold” value was found to be 24 mV.
